Data published in ChEMBL document CHEMBL5634149, “Covalent and noncovalent strategies for targeting Lys102 in HIV-1 reverse transcriptase” (Eur J Med Chem, 2023).

How the values were obtained:
[1] = tested on: Human immunodeficiency virus 1; assay: Anti-viral activity against wild type HIV1 strain IIIB infected in human MT2 cells assessed as protection of cells from infection; format: functional, organism-based; conditions: Human immunodeficiency virus 1, IIIB
[2] = target: Human immunodeficiency virus type 1 reverse transcriptase (Human immunodeficiency virus 1, UniProt Q72547); assay: Inhibition of HIV1 reverse transcriptase using r(A)350 template and d(T)16 primer as substrate preincubated for 1 hr before adding substrate by PicoGreen EnzChek Reverse Transcriptase Assay
MT2 = assay: Cytotoxicity against human MT2 cells assessed as inhibition of cell growth; format: toxicity, cell-based
[3] = Therapeutic index, ratio of CC50 for cytotoxicity against human MT2 cells to EC50 for antiviral activity against wild type HIV1 strain IIIB infected in human MT2 cells assessed as protection of cells from infection; format: toxicity, cell-based; conditions: read-out: TI

Row | Structure (SMILES) | EC50 [1] [nM] | IC50 [2] [nM] | CC50 (MT2) [nM] | selectivity ratio [3]
1 | N#Cc1cc(Cl)cc(Oc2ccc(Cl)cc2OCCn2cc(Cl)c(=O)[nH]c2=O)c1 | 17 | – | – | –
2 | C=CC(=O)NCCOc1cc(Cl)ccc1Oc1cc(Cl)cc(C#N)c1 | 12500 | 60000 | 42000 | –
3 | N#Cc1cc(Cl)cc(Oc2ccc(Cl)cc2OCc2ccccc2)c1 | 41000 | 1300 | > 100000 | –
4 | C=CC(=O)N(C)CCOc1cc(Cl)ccc1Oc1cc(Cl)cc(C#N)c1 | 400 | 60 | 27000 | –
5 | C=CC(=O)n1c(=O)n(CCOc2ccccc2Oc2cccc3cc(C#N)ccc23)c2ccccc21 | 1 | < 5 | 4500 | 9000
6 | N#Cc1cc2c(Oc3ccccc3OCCC(=O)NCC(F)F)cccn2c1 | 2100 | 1300 | > 100000 | –
7 | C=CC(=O)N(C)CCOc1cc(Cl)ccc1Oc1cccn2cc(C#N)cc12 | 28 | 26 | 30000 | –
8 | N#Cc1ccc2c(Oc3ccccc3OCCC(=O)N3CCCC3)cccc2c1 | 14 | 20 | 20000 | –
9 | CN(CCOc1ccc(Cl)c(Oc2cc(Cl)cc(C#N)c2)c1)C(=O)CCl | – | 1200 | 1300 | –
10 | C=CC(=O)NCCc1ccc(Cl)c(Oc2cc(Cl)cc(C#N)c2)c1 | 3100 | 400 | 29000 | –
11 | C=CC(=O)N(C)CCOc1cc(Cl)ccc1Oc1cccc2cc(C#N)ccc12 | 17 | 25 | 16000 | –
12 | N#Cc1cc(Cl)cc(Oc2cc(OCCNC(=O)CCl)ccc2Cl)c1 | – | 2750 | 5800 | –
13 | CN(C)C(=O)CCOc1ccccc1Oc1cccc2cc(C#N)ccc12 | 3 | 20 | 33000 | –
14 | C=CC(=O)n1c(=O)n(CCOc2cc(Cl)ccc2Oc2cc(Cl)cc(C#N)c2)c2ccccc21 | 470 | 150 | 8000 | –
15 | C=CC(=O)N(C)CCOc1ccc(Cl)c(Oc2cc(Cl)cc(C#N)c2)c1 | 10000 | 750 | 17000 | –
16 | C=CC(=O)N(C)CCOc1ccc(Cl)c(Oc2cccc3cc(C#N)ccc23)c1 | 8500 | < 10 | 25000 | –
17 | CN(CCc1ccc(Cl)c(Oc2cc(Cl)cc(C#N)c2)c1)C(=O)CCl | – | 4400 | 470 | –

Row | Structure (SMILES) | EC50 [1] [nM] | IC50 [2] [nM] | CC50 (MT2) [nM] | selectivity ratio [3]
18 | N#Cc1cc(Cl)cc(Oc2ccc(Cl)cc2OCCc2ccccc2)c1 | 3100 | 60 | > 100000 | –
19 | C=CC(=O)Nc1cccc(COc2cc(Cl)ccc2Oc2cc(Cl)cc(C#N)c2)c1 | – | 900 | 19000 | –
20 | N#Cc1cc2c(Oc3ccccc3OCCC(=O)N3CCOCC3)cccn2c1 | 190 | 60 | > 100000 | –
21 | C=CC(=O)NCCOc1ccc(Cl)c(Oc2cc(Cl)cc(C#N)c2)c1 | – | 1100 | 32000 | –
22 | C=CC(=O)Nc1cccc(CCOc2cc(Cl)ccc2Oc2cc(Cl)cc(C#N)c2)c1 | 3600 | 60 | 17000 | –
23 | C=CC(=O)N(C)CCOc1ccccc1Oc1cccn2cc(C#N)cc12 | 3 | < 10 | 8800 | –
24 | C=CC(=O)N(C)CCc1ccc(Cl)c(Oc2cc(Cl)cc(C#N)c2)c1 | 6200 | 500 | 50000 | –
25 | N#Cc1cc2c(Oc3ccccc3OCCC(=O)N3CCCC3)cccn2c1 | 17 | 20 | > 100000 | –
26 | CN(C)C(=O)CCOc1ccccc1Oc1cccn2cc(C#N)cc12 | 36 | 20 | > 100000 | –
27 | N#Cc1cc(Cl)cc(Oc2cc(CCNC(=O)CCl)ccc2Cl)c1 | – | 750 | 2700 | –
28 | C=CC(=O)N(C)CCOc1ccccc1Oc1cc(Cl)cn2cc(C#N)cc12 | 48 | 20 | 33000 | –
29 | C=CC(=O)N(C)CCOc1ccccc1Oc1cccc2cc(C#N)ccc12 | 1 | < 10 | 4000 | –
30 | C=CS(=O)(=O)CCOc1ccc(Cl)c(Oc2cc(Cl)cc(C#N)c2)c1 | 5700 | 8000 | 7500 | –
31 | C=CS(=O)(=O)CCc1ccc(Cl)c(Oc2cc(Cl)cc(C#N)c2)c1 | – | 100000 | 6000 | –
32 | C=CC(=O)N(C)CCOc1ccc(Cl)c(Oc2cccn3cc(C#N)cc23)c1 | 3900 | 70 | 31000 | –
33 | N#Cc1cc(Cl)cc(Oc2ccc(Cl)cc2OCCc2cccc(S(=O)(=O)F)c2)c1 | 45000 | 150 | 70000 | –
34 | C=CS(=O)(=O)c1cccc(CCOc2cc(Cl)ccc2Oc2cc(Cl)cc(C#N)c2)c1 | – | 9000 | 16000 | –
